From PMC7034088, “Effect of verapamil on the pharmacokinetics of hydroxycamptothecin and its potential mechanism” (Pharmaceutical Biology, 2020)
Like-named read-outs stand apart in the source and are kept apart here.

Assays:
[1] = Metabolic stability of HCPT in rat liver microsomes with or without verapamil; format: in vitro ADME; details: for microsomal CLint at 1 µM: read-out: intrinsic clearance rate
Experimental: The metabolic stability of HCPT was investigated in rat liver microsomes with or without verapamil. The detailed methods were similar to those reported before (Wang et al. [2017]; Yan et al. [2017]). Briefly, 30 μL rat liver microsome (20 mg/mL), 12 μL HCPT solution (100 μM) and 1113 μL PBS buffer (0.1 M, pH 7.4) were added to the centrifuge tubes on ice. After a 5-min preincubation at 37 °C, the NADPH-generating system (45 μL) was added into the microsomal suspension to initiate the reaction. Meanwhile, the effects of verapamil or ketoconazole (a positive CYP3A4 inhibitor) on the metabolic stability of HCPT were investigated by adding 10 μM of verapamil or ketoconazole (12 μL, final concentration of 0.1 μM) to rat liver microsomes and preincubating them for 30 min at 37 °C, followed by the addition of NADPH-generating system. Aliquots of 100 μL were collected from the reaction volumes at 0.083, 0.167, 0.33, 0.5, 1, 2, 4, 8, 12, 24, and 36 h after the addition of HCPT, and 200 μL ice-cold acetonitrile containing esculin was added to terminate the reaction. All the experiments were performed in triplicate. The subsequent sample preparation method was the same as the plasma sample preparation method, and the concentration of HCPT was determined by LC-MS.
The in vitro half-life (t1/2) was obtained using the equation: t1/2 = 0.693/k; V (μL/mg) = volume of incubation (μL)/protein in the incubation (mg); intrinsic clearance (Clint) (μL/min/mg protein) = V × 0.693/t1/2.

[2] = Bidirectional transport of HCPT in the Caco-2 cell transwell model with or without verapamil; details: human; for efflux ratio at 2 µM: Caco-2, pH 7.4, efflux ratio, Caco-2 transwell, HCPT 2 μM
Experimental: (§1) The Caco-2 cell line was obtained from the American Type Culture Collection (Manassas, VA), and it was performed according to the previous study (Liu et al. [2019]). The Caco-2 cells were cultured in DMEM high glucose medium containing 15% FBS, 1% NEAA, and 100 U/mL penicillin and streptomycin. The cells were cultured at 37 °C with 5% CO2. For transport studies, the cells at passage 40 were seeded on transwell polycarbonate insert filters (1.12 cm^2 surface, 0.4 μm pore size, 12 mm diameter; Corning Co-star Corporation, Corning, MA) in 12-well plates at a density of 1 × 10^5 cells/cm^2. Cells were allowed to grow for 21 days. For the first seven days, the medium was replaced every two days, and then daily. The transepithelial electrical resistance (TEER) of the monolayer cells was measured using Millicell ERS-2 (Millipore Corporation, Billerica, MA), and TEER exceeding 400 Ω·cm^2 was used for the flux experiment. […] The alkaline phosphatase activity was validated using an Alkaline Phosphatase Assay Kit. The qualified monolayers were used for transport studies.
(§2) The Caco-2 cell transwell model was employed to investigate the transport of HCPT in the presence or absence of verapamil. The cell monolayers were rinsed twice with warm (37 °C) Hanks’ balanced salt solution (HBSS) before the transport experiments. After that, the cells were incubated at 37 °C for 20 min. HCPT was added to either apical or basolateral side to incubate with the cell monolayers in fresh incubation medium for the indicated times at 37 °C, after preincubation. The volume of incubation medium on the apical and basolateral sides was 0.5 mL and 1.5 mL, respectively, and a 100 μL aliquot of the incubation solution was withdrawn at the indicated time points from the receiver compartment and replaced with the same volume of fresh pre-warmed HBSS buffer. The permeability of HCPT (2 μM) in all of the above conditions for both directions, i.e., from the apical (AP) side to the basolateral (BL) side and from the BL side to the AP side, was measured after incubation for 30, 60, 90, and 120 min at 37 °C. In addition, the efflux activity of P-gp was validated using a typical P-gp substrate digoxin (25 μM).
(§3) The apparent permeability coefficient (Papp) was calculated using the equation of Artursson and Karlsson: Papp=(ΔQ/Δt)×[1/(A×C0)] where Papp is the apparent permeability coefficient (cm/s), ΔQ/Δt (μmol/s) is the rate at which the compound appears in the receiver chamber, C0 (μmol/L) is the initial concentration of the compound in the donor chamber, and A (cm^2) represents the surface area of the cell monolayer. Data were collected from three separate experiments, and each was performed in triplicate.

[3] = In vivo pharmacokinetic study of oral HCPT in rats with or without verapamil pre-treatment; details: male, Sprague-Dawley, rat, plasma, 50 mg/kg, HCPT 50 mg/kg intragastric/oral, n = 6, Mean ± S.D.; for CL/F: read-out: CLz/F (oral clearance) (converted)
Experimental: Male Sprague–Dawley rats weighing 230–250 g were provided by Shanghai SLAC Laboratory Animal Co., Ltd (Shanghai, China). Rats were bred in a breeding room at 25 °C with 60 ± 5% humidity and a 12 h dark-light cycle. Tap water and normal chow were given ad libitum. All of the experimental animals were housed under the above conditions, for a 3-day acclimation period and fasted overnight before the experiments. All experimental procedures and protocols were reviewed and approved by the Animal Care and Use Committee of China–Japan Union Hospital of Jilin University and were in accordance with the National Institutes of Health guidelines regarding the principles of animal care.
Rats were divided into two groups of six animals each, with or without pre-treatment of verapamil. The pre-treatment of verapamil on the test group was at a dose of 10 mg/kg/day (dissolved directly in normal saline containing 0.5% methylcellulose at a concentration of 2 mg/mL) for 7 days. Next, 50 mg/kg HCPT was administrated orally. Blood samples (200 μL) were collected into heparinized tubes via the oculi choroidal vein at 0.083, 0.33, 0.5, 1, 2, 4, 6, 8, 10, 12, 24, and 36 h after the oral administration of […]. The blood samples were centrifuged at 3500 rpm for 5 min. The plasma samples that were obtained were stored at −40 °C until analysis.
To obtain 100 μL aliquot of plasma sample, 20 μL methanol and 180 μL internal standard methanol solution (2 ng/mL) were added and vortexed for 60 s to mix in a 1.5 mL polypropylene tube, and were centrifuged at 12,000 rpm for 10 min. The supernatant was removed into an injection vial, and a 3 μL aliquot was injected into the LC-MS/MS system for analysis.
The determination of HCPT was performed on an Agilent 1290 series liquid chromatography system and an Agilent 6470 triple-quadruple mass spectrometer (Palo Alto, CA). The HPLC/MS conditions and sample preparation were basically according to a validated HPLC method described before (Zhang et al. [2019]). The chromatographic analysis of HCPT was performed on a Waters X-Bridge C18 column (3.0 × 100 mm, i.d.; 3.5 μm, Waters Corporation, Milford, MA ) at room temperature (25 °C). The mobile phase was water (containing 0.1% formic acid) and acetonitrile (30:70, v: v) with isocratic elution at a flow rate of 0.2 mL/min, and the analysis time was 4 min.
The mass scan mode was positive MRM mode. The precursor ion and product ion are m/z 365.20→321.10 for HCPT and m/z 349.25→305.15 for IS. The collision energy for HCPT and IS were 30 and 20 eV, respectively. The MS/MS conditions were optimized as follows: fragmentor, 110 V; capillary voltage, 3.5 kV; Nozzle voltage, 500 V; nebulizer gas pressure (N2), 40 psig; drying gas flow (N2), 10 L/min; gas temperature, 350 °C; sheath gas temperature, 400 °C; sheath gas flow, 11 L/min.
Pharmacokinetic parameters, including the area under the plasma concentration–time curve (AUC), maximal plasma concentration (Cmax), the time for the maximal plasma concentration (Tmax), and the mean residence time (MRT), were calculated using the DAS 3.0 pharmacokinetic software (Chinese Pharmacological Association, Anhui, China).

[4] = test system: P-gp; assay: Bidirectional transport of HCPT in the Caco-2 cell transwell model with or without verapamil; details: human, Caco-2, efflux ratio, Caco-2 transwell, digoxin 25 μM (P-gp substrate validation), without verapamil
Experimental: as §1, §2, §3

[5] = test system: Caco-2 cell monolayers; assay: as above; details: Caco-2 transwell, digoxin 25 μM, with addition of verapamil
Experimental: as §1, §2, §3

[6] = pH 7.4, with verapamil, final concentration 0.1 µM, in the presence of verapamil (preincubation 30 min at 37 °C)
[7] = pre-treatment of verapamil 10 mg/kg/day for 7 days

CC[C@@]1(O)C(=O)OCc2c1cc1n(c2=O)Cc2cc3cc(O)ccc3nc2-1 [HCPT, Hydroxycamptothecin]
half-life at 1 µM [1, 6]: 0.807 ± 0.0085 h | microsomal CLint at 1 µM [1, 6]: 28.6 ± 0.3 µL/min/mg | half-life at 1 µM ([1]; pH 7.4, without verapamil): 0.585 ± 0.00533 h | microsomal CLint at 1 µM ([1]; pH 7.4, without verapamil): 39.5 ± 0.42 µL/min/mg | Papp B→A at 2 μM ([2]; Caco-2, pH 7.4): 0.205 ×10⁻⁶ cm/s | efflux ratio at 2 µM ([2]; in the presence of verapamil): 1.21 | efflux ratio at 2 µM ([2]; without verapamil): 1.82 | AUC(0-t) ([3]; control (no verapamil)): 660 ± 100 ng·h/mL | Cmax ([3]; control (no verapamil)): 92 ± 11.3 ng/mL | MRT ([3]; control (no verapamil)): 9.61 ± 0.55 h | Tmax ([3]; control (no verapamil)): 1.12 ± 0.14 h | half-life ([3]; control (no verapamil)): 17.7 ± 3.6 h | CL/F ([3]; control (no verapamil)): 1060 mL/min/kg | AUC(0-t) [3, 7]: 1140 ± 290 ng·h/mL | Cmax [3, 7]: 125 ± 13.5 ng/mL | MRT [3, 7]: 11.4 ± 0.78 h | Tmax [3, 7]: 0.89 ± 0.09 h | half-life [3, 7]: 23 ± 6.71 h | CL/F [3, 7]: 549 mL/min/kg

C[C@H]1O[C@@H](O[C@H]2[C@@H](O)C[C@H](O[C@H]3[C@@H](O)C[C@H](O[C@H]4CC[C@@]5(C)[C@H](CC[C@@H]6[C@@H]5C[C@@H](O)[C@]5(C)[C@@H](C7=CC(=O)OC7)CC[C@]65O)C4)O[C@@H]3C)O[C@@H]2C)C[C@H](O)[C@@H]1O [digoxin]
efflux ratio at 25 µM [4]: 11 | efflux ratio, effect of addition of verapamil [5]: abrogated it
